Measurements from article PMC7558522, “Click-Free Synthesis of a Multivalent Tricyclic Peptide as a Molecular Transporter” (Pharmaceutics, 2020).
In brackets after ≈: the same amount, converted by molar mass. Like-named read-outs stand apart in the source and are kept apart here. *1 amine or outer side, *2 acyl side, *3 side chain or, on linkers, in order; H or OH if unused. Where a SMILES comes first, the peptide text is derived from it. Bridges are numbered along the chain shown (N, C = ends). Roman numbers before positions name the chains, in order. Suc = O=C(CCC(=O)[*:2])[*:1]

How the values were obtained:
MRSA (LAC Clone) = experiment: microbe, parasite or virus in culture; type: cell-based, Methicillin-resistant Staphylococcus aureus
Experimental: (§1) The selected strains of bacteria, MRSA (Los Angeles County (LAC) clone), E. coli (ATCC 25922), Pseudomonas aeruginosa (ATCC 27883), and Klebsiella pneumoniae (ATCC BAA 1705) were cultured according to the guidelines of the Clinical Laboratory Standards Institute (CLSI) guidelines. MIC values were determined using microbroth dilution assay. Tricyclic peptide 20 was used to evaluate antibacterial activity in comparison to positive controls, such as Meropenem for Gram-negative bacteria and c[R4W4] for Gram-positive bacteria. Bacterial strains were inoculated into LB (5 mL) and shaken in an orbital shaker at 175 rpm overnight at 37 °C. The cultured suspension was immediately diluted to get turbidity of 0.5 McFarland (1.5 × 10^8 bacterial cell CFU/mL) using normal saline. The test compounds (tricyclic peptide 20, Meropenem, and c[R4W4]) were dissolved in 5% dimethyl sulfoxide (DMSO) to generate 256 µg/mL solutions. 200 µL of tricyclic peptide 20, and controls were added to the first column of the 96 well plates, and a twofold serial dilution was performed with the addition of 100 µL of bacterial culture media to the other wells. […] Bacterial solution (100 µL) was added to all the wells and incubated statically at 37 °C overnight. The minimum concentration at which bacterial growth was not visible to eyes were reported as MICs and experiments were performed in triplicate.

[1] = test system: Klebsiella pneumoniae (ATCC BAA 1705); experiment: microbe, parasite or virus in culture; type: cell-based
Experimental: as §1

[2] = test system: Pseudomonas aeruginosa (ATCC 27883); experiment: microbe, parasite or virus in culture; type: cell-based
Experimental: as §1

E. coli (ATCC 25922) = experiment: microbe, parasite or virus in culture; type: cell-based, Escherichia coli
Experimental: as §1

[3] = test system: MRSA, Klebsiella pneumoniae, Pseudomonas aeruginosa, and E. coli; type: cell-based; settings: range over the four strains, microbroth dilution
Experimental: as §1

MDA-MB-231 cells = type: cell-based, Human
Experimental: Human breast cancer (MDA-MB-231) cell line was grown on 75 cm^2 cell culture flasks with Dulbecco’s modified eagle’s medium (DMEM) medium, supplemented with 10% fetal bovine serum (FBS), and 1% penicillin-streptomycin solution (10,000 units of penicillin and 10 mg of streptomycin in 0.9% NaCl) in a humidified atmosphere of 5% CO2, 95% air at 37 °C. CellTiter 96® Aqueous (Promega, Madison, WI, USA) one solution cell proliferation assay (MTS) was utilized to evaluate MDA-MB-231 cell viability. Cells were seeded into 96-well plate (10^4 cells/100 μL) in complete media and incubated overnight at 37 °C with 5% CO2. Different concentrations (0−300 μM) of the peptide solution (10 μL) were added to wells to make the final concentrations of the peptide (0−30 μM). The cells were incubated again (37 °C, 5% CO2) for 24 h, then MTS reagent (20 μL) was added to each well followed by incubation for 2 h under the same condition. The absorbance of the resulting solution was evaluated at 490 nm using a microplate reader to detect the live cells. Cells without peptide were considered as a control. DMSO (30% v/v) was used as a positive control. The compound was used in aqueous solution. All the tests were performed in triplicate.

MIC (MRSA (LAC Clone); Staphylococcus aureus, MRSA, microbroth dilution, incubated overnight at 37 °C, growth not visible to eyes, performed in triplicate, read-out: MIC) [µg/mL] | MIC ([1]; Klebsiella pneumoniae, BAA1705, microbroth dilution, incubated overnight at 37 °C, growth not visible to eyes, performed in triplicate, read-out: MIC) [µg/mL] | MIC ([2]; Pseudomonas aeruginosa, ATCC27883, microbroth dilution, incubated overnight at 37 °C, growth not visible to eyes, performed in triplicate, read-out: MIC) [µg/mL] | MIC (E. coli (ATCC 25922); Escherichia coli, ATCC25922, microbroth dilution, incubated overnight at 37 °C, growth not visible to eyes, performed in triplicate, read-out: MIC) [µg/mL] | SMILES | MIC (MRSA (LAC Clone); LAC Clone) [µg/mL] | MIC ([1]; ATCC BAA 1705) [µg/mL] | MIC ([2]; ATCC 27883) [µg/mL] | MIC (E. coli (ATCC 25922); ATCC 25922) [µg/mL] | MIC (range over MRSA, K. pneumoniae, P. aeruginosa, E. coli) [3] [µg/mL] | cell viability (MDA-MB-231 cells; 25 µM) | cell viability (MDA-MB-231 cells; 30 µM) [%]
– | – | – | – | N=C(N)NCCC[C@@H]1NC(=O)[C@H](Cc2c[nH]c3ccccc23)NC(=O)[C@H](CCCNC(=N)N)NC(=O)[C@H](Cc2c[nH]c3ccccc23)NC(=O)[C@H](CCCCNC(=O)CCC(=O)NCCCC[C@@H]2NC(=O)[C@H](CCCNC(=N)N)NC(=O)[C@H](Cc3c[nH]c4ccccc34)NC(=O)[C@H](CCCNC(=N)N)NC(=O)[C@H](Cc3c[nH]c4ccccc34)NC(=O)[C@H](CCCNC(=N)N)NC(=O)[C@H](Cc3c[nH]c4ccccc34)NC(=O)[C@H](CCCNC(=N)N)NC(=O)[C@H](Cc3c[nH]c4ccccc34)NC2=O)NC(=O)[C@H](CCCNC(=N)N)NC(=O)[C@H](Cc2c[nH]c3ccccc23)NC(=O)[C@H](CCCNC(=N)N)NC(=O)[C@H](Cc2c[nH]c3ccccc23)NC(=O)[C@H](CCCCNC(=O)CCC(=O)NCCCC[C@@H]2NC(=O)[C@H](CCCNC(=N)N)NC(=O)[C@H](Cc3c[nH]c4ccccc34)NC(=O)[C@H](CCCNC(=N)N)NC(=O)[C@H](Cc3c[nH]c4ccccc34)NC(=O)[C@H](CCCNC(=N)N)NC(=O)[C@H](Cc3c[nH]c4ccccc34)NC(=O)[C@H](CCCNC(=N)N)NC(=O)[C@H](Cc3c[nH]c4ccccc34)NC2=O)NC1=O [Tricyclic peptide 20] (I: cyclo(KWRWRKWRWR) / II: cyclo(KWRWRWRWR) / III: cyclo(KWRWRWRWR); linker I:1-III:1, I:6-II:1 via Suc) | 64 (≈ 13.4 µM) | 128 (≈ 26.7 µM) | 128 (≈ 26.7 µM) | 64 (≈ 13.4 µM) | 64 to 128 | more than 97% | 92
4 (≈ 10.4 µM) | 32 (≈ 83.4 µM) | 1 (≈ 2.61 µM) | 8 (≈ 20.9 µM) | C[C@@H](O)[C@H]1C(=O)N2C(C(=O)O)=C(S[C@@H]3CN[C@H](C(=O)N(C)C)C3)[C@H](C)[C@H]12 [Meropenem] | – | – | – | – | – | – | –
– | – | – | – | N=C(N)NCCC[C@@H]1NC(=O)[C@H](CCCNC(=N)N)NC(=O)[C@H](CCCNC(=N)N)NC(=O)[C@H](Cc2c[nH]c3ccccc23)NC(=O)[C@H](Cc2c[nH]c3ccccc23)NC(=O)[C@H](Cc2c[nH]c3ccccc23)NC(=O)[C@H](Cc2c[nH]c3ccccc23)NC(=O)[C@H](CCCNC(=N)N)NC1=O [c[R4W4]] (cyclo(RRRRWWWW)) | 4 (≈ 2.92 µM) | 32 (≈ 23.4 µM) | 64 (≈ 46.7 µM) | 16 (≈ 11.7 µM) | – | – | –
